From ChEMBL document CHEMBL1145551, “Further pterocellins from the New Zealand marine bryozoan Pterocella vesiculosa” (J Nat Prod, 2008)
Values after ≈ are worked out from the molar mass of the structure shown. Active and inactive are the calls of the source. The calls are words filed in the database; no cut-off is given here.

Tests used:
P388 = experiment: Cytotoxicity against mouse P388 ATCC CCL 46 cells; assay type: functional, cell-based
Amorphotheca resinae = experiment: Antifungal activity against Cladosporium resinae; assay type: functional, organism-based
Human alphaherpesvirus 1 = experiment: Antiviral activity against HSV1 F ATCC VR 733 in african green monkey BSC1 cells; assay type: functional, organism-based; conditions: BSC-1
Poliovirus 1 = experiment: Antiviral activity against PV1 in african green monkey BSC1 cells; assay type: functional, organism-based; conditions: BSC-1
[1] = Cytotoxicity against african green monkey BSC1 cells at 40 ug/disc; assay type: cell-based; conditions: chlorocebus aethiops, bsc-1
Escherichia coli = experiment: Antibacterial activity against Escherichia coli; assay type: functional, organism-based
Bacillus subtilis = experiment: Antibacterial activity against Bacillus subtilis; assay type: functional
Pseudomonas aeruginosa = experiment: Antibacterial activity against Pseudomonas aeruginosa; assay type: functional, organism-based
Candida albicans = experiment: Antifungal activity against Candida albicans; assay type: functional, organism-based
[2] = system: Trichophyton mentagrophytes; experiment: Antifungal activity against Trichophyton mentagrophytes; assay type: functional, organism-based

Row | Structure (SMILES) | IC50 (P388) [µg/mL] | Activity (Amorphotheca resinae) | Activity (Human alphaherpesvirus 1) | Activity (Poliovirus 1) | Activity [1] | Activity (Escherichia coli) | MIC (Bacillus subtilis) [µg] | Activity (Pseudomonas aeruginosa) | Activity (Candida albicans) | Activity [2]
1 | COc1cn2c(cc1=O)C(=O)c1ccnc(CC(C)C)c1-2 [PTEROCELLIN A] | 0.477 (≈ 1.68 µM) | – | – | – | – | – | – | – | – | –
2 | COc1cn2c(cc1=O)C(=O)c1ccnc(Cc3ccccc3)c1-2 [PTEROCELLIN B] | 0.323 (≈ 1.01 µM) | – | – | – | – | – | – | – | – | –
3 | COc1cn2c(c(CCCCC(C)=O)c1=O)C(=O)c1ccnc(CC(C)C)c1-2 [PTEROCELLIN C] | > 6.25 | inactive | inactive | inactive | Non-toxic | inactive | 0.2 | inactive | inactive | inactive
4 | COc1cn2c(c(C(C)C)c1=O)C(=O)c1ccnc(CC(C)C)c1-2 [PTEROCELLIN D] | 4.77 (≈ 14.6 µM) | inactive | – | – | – | – | 0.5 | inactive | inactive | –
5 | COc1cn2c(c(-c3c4n(cc(OC)c3=O)-c3c(ccnc3CC(C)C)C4=O)c1=O)C(=O)c1ccnc(CC(C)C)c1-2 [PTEROCELLIN E] | > 6.25 | inactive | inactive | inactive | Non-toxic | inactive | 1 | inactive | inactive | inactive
6 | COc1cn2c(c(Cc3c4n(cc(OC)c3=O)-c3c(ccnc3CC(C)C)C4=O)c1=O)C(=O)c1ccnc(CC(C)C)c1-2 [PTEROCELLIN F] | > 6.25 | inactive | inactive | inactive | Non-toxic | inactive | 1 | inactive | inactive | inactive
